Source: patent US20080219972A1, “Prostatic Acid Phosphatase (Pap) Materials and Methods of Use Thereof in the Prophylactic and Therapeutic Treatment of Prostate Cancer” (UNIVERSITY OF MARYLAND, BALTIMORE, priority 2005, published 2008)

System: CD4 T-cells from PBMC of HLA-DRB1*1501-positive GP patients and normal male donors
Test: Human CD4 T-cell line responses to PAP polypeptides (IFN-γ ELISPOT, proliferation assay, IFN-γ ELISA)
Format: cell-based
Procedure: The PAP polypeptides identified above were tested in human cultures. CD4 T-cell lines, which were specific for polypeptide 15 or polypeptide 19, were established from PBMC of HLA-DRB1*1501-positive GP patients and normal male donors by repeated stimulations with the polypeptide 19. After two rounds of in vitro stimulation, T-cells were plated at 2×10^4 cells/well in 96-well, round-bottomed plates, and stimulated by irradiated autologous PBMC in the presence/absence of polypeptide 19 or control polypeptide 15.
No polypeptide-specific responses were detected in primary PBMC cultures by IFN-γ ELISPOT, proliferation assay, or IFN-γ ELISA. When CD4 T-cells were stimulated with polypeptide […], cells from three of five GP patients and three of four normal male donors responded to the specific peptide in secondary cultures.
The HLA restriction of the cell line was confirmed using an immortalized B-cell line derived from a patient with type II Bare Lymphocyte Syndrome (BLC cells) and engineered to express HLA-DRB1*1501.
A CD4 T-cell line, which was developed from patient Pr131 by repeated stimulation with polypeptide 19, recognized human and mouse homolog polypeptides.

## ESEEFLKRLHPYKSFLD TLS (ESEEFLKRLHPYKSFLDTLS; listed as Mus musculus) [mouse homolog, mouse polypeptide corresponding to human polypeptide 19, six amino acid substitutions]
Inferred from concentration range of response
  avidity relative to human polypeptide 19: higher avidity
Line developed by repeated stimulation with polypeptide 19
  recognition by Pr131 CD4 T-cell line raised with polypeptide 19: recognized
Seen in a broader range of concentration
  response of Pr131 CD4 T-cell line stimulated with irradiated autologous PBMC: strong response
